Among the data in paper PMC6273578, “Design, Synthesis and Biological Evaluation of Benzohydrazide Derivatives Containing Dihydropyrazoles as Potential EGFR Kinase Inhibitors” (Molecules, 2016) are IC50, CC50 and melting point values, retold here.

Like-named read-outs stand apart in the source and are kept apart here.

For one data set, the system named is EGFR. The conditions noted are these: read-out: EGFR inhibitory activity IC50, cited from earlier work.
The next data set has as its system MCF-7 cells. Put plainly: MTT antiproliferative assay, MCF-7. It is filed as cell-based, human. The procedure:
(§1) IC50 values of the test compounds against A549, MCF-7, Hela and HepG2 cells were obtained from State Key Laboratory of Pharmaceutical Biotechnology, Nanjing University, and were determined by a standard (MTT)-based colorimetric assay (Beyotime Inst. Biotech., Nanjing, China). Tumor cell lines were grown to mid-log phase and then diluted to […] making sure they were seeded in 96-well plates (Philas, Nanjing, China) at a density of 5 × 10^3–1 × 10^4 cells per well. The outer wells containing 1 × PBS solution of the plate are not used for the assay to avoid the possibility of edge effects. The plate was incubated at 37 °C in a 5% CO2 incubator in DMEM containing 10% fetal bovine serum (FBS, Gibco, Waltham, MA, USA) for 24 h. Then, we added a 100-μL series concentration of drug-containing medium into the wells to maintain the final concentration of drug as 100, 10, 1 and 0.1 μmol/L. After 12 h, cell survival was determined by the addition of a MTT (3-(4,5-dimethylthiazol-2-yl)-2,5-diphenyl trtrazolium bromide) solution (10 μL of 5 mg/mL MTT in 1 × PBS). We waited for 4 h proliferation, discarded the medium and quickly added 150 μL DMSO per well, shaking the plates well for 10 min to ensure complete dissolution. Optical absorbance was measured at 570 nm on a microplate reader (Bio-Rad, Hercules, CA, USA). Survival ratios are expressed in percentages with respect to untreated cells. The experiments were replicated at least three times to verify the methodology reproducibility when using the above-mentioned conditions.
(Tetrazolium assays rely on reduction of a dye to a coloured formazan, in cell work by metabolically active cells.)

For another data set, the system named is HeLa cells. Nature of the data set: MTT antiproliferative assay, HeLa. It is filed as cell-based, human. The conditions noted are these: read-out: In vitro antiproliferative activity IC50, HeLa. The procedure: as §1
The next data set deals with A549 cells. Nature of the data set: MTT antiproliferative assay, A549. Format: cell-based, human. The note with it: read-out: In vitro antiproliferative activity IC50, A549. The procedure:
as §1

In data set [1] the test system is 293T human kidney epithelial cells. Put plainly: Cytotoxicity test (MTT) on 293T cells. The conditions noted are these: read-out: median cytotoxic concentration CC50; 293T cells, MTT assay, 24 h. The procedure:
(§2) The cytotoxic activity in vitro was measured by the colorimetric MTT assay. […] For the cytotoxicity assay, 20 μL of MTT (5 mg/mL) was added per well 4 h before the end of the incubation. After removing the supernatant, 200 μL DMSO was added to dissolve the formazan crystals. The absorbance at λ 570 nm was read on an LX300 Epson Diagnostic microplate reader, untreated cells were used as negative controls.

For the next data set, the system named is HepG2 cells. Put plainly: MTT antiproliferative assay, HepG2. The conditions noted are these: read-out: In vitro antiproliferative activity IC50, HepG2. Format: cell-based, human. On the procedure:
as §1

Data set [2] addresses epidermal growth factor receptor (EGFR) (Homo sapiens, UniProt P00533). Put plainly: EGFR kinase inhibition, solid-phase ELISA assay. (In general: ELISA stands for enzyme-linked immunosorbent assay.)
Protocol: All these newly synthesized compounds were evaluated for their inhibitory activities against EGFR kinases using a solid-phase ELISA assay.
EGFR tyrosine kinase activity was determined by an enzyme linked-immunosorbent assay (ELISA) in 96-well plates precoated in a 10 mL reaction volume including 4 mL diluted test compounds, 4 mL substrate and 2 mL ATP. […] The plates were then aspirated and washed twice with 200 mL 0.9% (w/v) NaCl, and incorporation of Pi was determined with an LX300 Epson Diagnostic microplate reader. […] The experiments were replicated at least three times to verify the methodology reproducibility when using the above-mentioned conditions.
Data set [3] in a line: Cytotoxicity test (MTT) on 293T cells. The note with it: human, 293T human kidney epithelial cells. On the procedure:
as §2

The mark [4] stands for this setting: read-out: In vitro antiproliferative activity IC50, MCF-7.
The mark [5] stands for this setting: read-out: Inhibition activity IC50 against EGFR, solid-phase ELISA assay.

Chain of epidermal growth factor receptor (EGFR) (P00533 25-1210): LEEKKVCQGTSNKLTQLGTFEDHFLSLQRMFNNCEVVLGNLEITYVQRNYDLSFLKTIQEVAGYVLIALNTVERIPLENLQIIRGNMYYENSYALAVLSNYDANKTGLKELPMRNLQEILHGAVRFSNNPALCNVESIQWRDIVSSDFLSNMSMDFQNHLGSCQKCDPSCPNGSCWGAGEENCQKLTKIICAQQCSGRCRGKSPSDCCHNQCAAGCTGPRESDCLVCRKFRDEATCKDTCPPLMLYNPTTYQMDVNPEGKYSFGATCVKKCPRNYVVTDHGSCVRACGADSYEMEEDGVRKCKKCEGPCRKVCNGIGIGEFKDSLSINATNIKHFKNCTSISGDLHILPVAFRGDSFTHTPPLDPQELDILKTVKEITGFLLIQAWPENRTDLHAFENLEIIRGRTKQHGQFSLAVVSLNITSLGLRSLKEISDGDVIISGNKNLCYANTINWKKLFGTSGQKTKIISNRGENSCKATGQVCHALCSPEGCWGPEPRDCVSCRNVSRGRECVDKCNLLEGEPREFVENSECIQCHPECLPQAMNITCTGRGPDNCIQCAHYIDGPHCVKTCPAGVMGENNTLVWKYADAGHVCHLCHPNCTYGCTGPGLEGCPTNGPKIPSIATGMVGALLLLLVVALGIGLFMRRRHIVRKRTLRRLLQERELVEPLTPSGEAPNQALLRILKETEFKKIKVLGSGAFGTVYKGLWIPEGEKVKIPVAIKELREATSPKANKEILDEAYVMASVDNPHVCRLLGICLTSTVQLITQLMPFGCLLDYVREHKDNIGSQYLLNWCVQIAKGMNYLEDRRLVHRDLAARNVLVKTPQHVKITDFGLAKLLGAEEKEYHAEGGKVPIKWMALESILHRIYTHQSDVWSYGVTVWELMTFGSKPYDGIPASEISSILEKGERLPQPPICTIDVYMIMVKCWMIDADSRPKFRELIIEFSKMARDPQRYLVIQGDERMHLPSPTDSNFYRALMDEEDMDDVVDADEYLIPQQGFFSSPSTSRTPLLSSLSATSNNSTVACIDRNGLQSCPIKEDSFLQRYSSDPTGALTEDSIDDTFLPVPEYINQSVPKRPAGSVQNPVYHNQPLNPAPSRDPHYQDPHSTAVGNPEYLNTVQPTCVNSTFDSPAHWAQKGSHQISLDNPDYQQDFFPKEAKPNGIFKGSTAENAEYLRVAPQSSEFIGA

Consider `CC(=O)N1N=C(c2ccc(C(F)(F)F)cc2)CC1c1ccc(C(=O)OCC(C)n2c([N+](=O)[O-])cnc2C)cc1` (centres unmarked) [d], for which, in the data set on EGFR (reported compounds of Figure 1), the IC50 was 0.26 µM.

With `COc1ccc(/C=N/NC(=O)c2ccc(N3N=C(c4ccccc4)CC3c3ccc4ccccc4c3)cc2)cc1` (centres unmarked) [Compound H17, (E)-N′-(4-Methoxybenzylidene)-4-(5-(naphthalen-2-yl)-3-phenyl-4,5-dihydro-1H-pyrazol-1-yl)benzo-hydrazide], the IC50 in the data set on MCF-7 cells (setting [4]) worked out at 18.4 µM; in the data set with HeLa cells, 20.7 µM; in the data set with A549 cells, 13.3 µM; in the data set on HepG2 cells it was 26.7 µM; in data set [2] (setting [5]), 7.89 µM. Besides, the CC50 in [1] came out at 94.2 µM.

On to `COc1cccc(/C=N/NC(=O)c2ccc(N3N=C(c4ccc(C)cc4)CC3c3ccc4ccccc4c3)cc2)c1` (centres unmarked) [Compound H4, (E)-N′-(3-Methoxybenzylidene)-4-(5-(naphthalen-2-yl)-3-(p-tolyl)-4,5-dihydro-1H-pyrazol-1-yl)benzo-hydrazide], for which the IC50 was 0.69 µM with MCF-7 cells (setting [4]); 0.45 µM in the data set with HeLa cells; 0.43 µM in the data set with A549 cells; 0.51 µM in the data set with HepG2 cells; 0.23 µM in data set [2] (setting [5]). The CC50 in data set [1] stood at 98.8 µM.

For `COc1ccc(/C=N/NC(=O)c2ccc(N3N=C(c4ccccc4C)CC3c3ccc4ccccc4c3)cc2)cc1` (centres unmarked) [Compound H18, (E)-N′-(4-Methoxybenzylidene)-4-(5-(naphthalen-2-yl)-3-(o-tolyl)-4,5-dihydro-1H-pyrazol-1-yl)benzo-hydrazide], the IC50 with MCF-7 cells (setting [4]) amounted to 1.63 µM; with HeLa cells, 0.78 µM; in the data set on A549 cells, 1.22 µM; with HepG2 cells, 0.56 µM; in data set [2] (setting [5]) it was 0.48 µM. Besides, the CC50 in [1] came out at 90.6 µM.

For the compound `Cc1ccc(C2=NN(c3ncc(-c4ccc(Cl)cc4)s3)C(c3ccc(F)cc3)C2)cc1C` (centres unmarked) [c], the IC50 with EGFR (reported compounds of Figure 1) was 0.06 µM.

On to `COc1ccc(/C=N/NC(=O)c2ccc(N3N=C(c4cccc(C)c4)CC3c3ccc4ccccc4c3)cc2)cc1` (centres unmarked) [Compound H19, (E)-N′-(4-Methoxybenzylidene)-4-(5-(naphthalen-2-yl)-3-(m-tolyl)-4,5-dihydro-1H-pyrazol-1-yl)benzo-hydrazide], for which the IC50 with MCF-7 cells (setting [4]) was 2.45 µM; in the data set with HeLa cells it was 1.19 µM; in the data set with A549 cells, 2.24 µM; in the data set on HepG2 cells, 3.26 µM; in data set [2] (setting [5]), 1.25 µM. Also, the CC50 in data set [1] came out at 92.6 µM.

Regarding `Cc1ccc(C2=NN(C3=NC(=O)CS3)C(c3ccc(Br)cc3)C2)cc1` (centres unmarked) [b], the IC50 in the data set with EGFR (reported compounds of Figure 1) is 0.24 µM.

Consider `COc1cccc(/C=N/NC(=O)c2ccc(N3N=C(c4ccccc4C)CC3c3ccc4ccccc4c3)cc2)c1` (centres unmarked) [Compound H2, (E)-N′-(3-Methoxybenzylidene)-4-(5-(naphthalen-2-yl)-3-(o-tolyl)-4,5-dihydro-1H-pyrazol-1-yl)benzo-hydrazide], for which the half-inhibitory concentration (IC50) in the data set with MCF-7 cells (setting [4]) is 1.52 µM; in the data set on HeLa cells it was 0.6 µM; with A549 cells, 1.41 µM; with HepG2 cells it was 0.67 µM; in [2] (setting [5]), 0.65 µM. In data set [1], the CC50 came to 87.5 µM.

As to `Cc1ccc(C2=NN(C3=NC(=O)CS3)C(c3ccc4ccccc4c3)C2)cc1C` (centres unmarked) [Compound e], in the data set on EGFR (reported compound of Figure 1), the IC50 is 0.12 µM.

On to “(E)-N′-(4-Methoxybenzylidene)-4-(3-(4-methoxyphenyl)-5-(naphthalen-2-yl)-4,5-dihydro-1H-pyrazol-1-yl)-benzohydrazide [Compound H22]”, for which the IC50 with MCF-7 cells (setting [4]) was determined as 9.69 µM; with HeLa cells it was 12.3 µM; with A549 cells, 7.12 µM; in the data set with HepG2 cells, 10.5 µM. In data set [1], the CC50 was found to be 84.7 µM.

Consider `COc1ccc(C2CC(c3ccc(C)c(C)c3)=NN2C(N)=S)cc1` (centres unmarked) [a], for which, in the data set on EGFR (reported compounds of Figure 1), the IC50 was 0.07 µM.

Consider “(E)-4-(3-(4-Ethylphenyl)-5-(naphthalen-2-yl)-4,5-dihydro-1H-pyrazol-1-yl)-N′-(3-methoxybenzylidene)-benzohydrazide [Compound H5]”, for which the 50% inhibitory concentration (IC50) was 7.72 µM in the data set on MCF-7 cells (setting [4]), 8.71 µM with HeLa cells, 5.49 µM in the data set with A549 cells and 6.16 µM with HepG2 cells. Besides, the CC50 in data set [1] amounted to 92.5 µM.

For the compound “(E)-N′-(3-Methoxybenzylidene)-4-(3-(4-methoxyphenyl)-5-(naphthalen-2-yl)-4,5-dihydro-1H-pyrazol-1-yl)-benzohydrazide [Compound H6]”, the IC50 was 10.2 µM in the data set on MCF-7 cells (setting [4]), 13.2 µM with HeLa cells, 8.32 µM with A549 cells and 11.5 µM in the data set on HepG2 cells. Further, the CC50 in data set [1] came to 81.8 µM.

Regarding `COc1cccc(/C=N/NC(=O)c2ccc(N3N=C(c4ccccc4)CC3c3ccc4ccccc4c3)cc2)c1` (centres unmarked) [Compound H1, (E)-N′-(3-Methoxybenzylidene)-4-(5-(naphthalen-2-yl)-3-phenyl-4,5-dihydro-1H-pyrazol-1-yl)benzo-hydrazide], the IC50 came to 21 µM with MCF-7 cells (setting [4]); 22.5 µM in the data set with HeLa cells; 14.5 µM in the data set with A549 cells; 28.8 µM in the data set with HepG2 cells; 8.47 µM in data set [2] (setting [5]). Moreover, the CC50 in data set [1] is 98.6 µM.

“(E)-4-(3-(4-Ethylphenyl)-5-(naphthalen-2-yl)-4,5-dihydro-1H-pyrazol-1-yl)-N′-(4-methoxybenzylidene)-benzohydrazide [Compound H21]”: the IC50 in the data set with MCF-7 cells (setting [4]) was found to be 6.33 µM; with HeLa cells it was 7.93 µM; in the data set on A549 cells, 4.54 µM; in the data set on HepG2 cells, 5.06 µM. Besides, the CC50 in data set [1] turned out to be 82.6 µM.

As to `COc1cccc(/C=N/NC(=O)c2ccc(N3N=C(c4cccc(C)c4)CC3c3ccc4ccccc4c3)cc2)c1` (centres unmarked) [Compound H3, (E)-N′-(3-Methoxybenzylidene)-4-(5-(naphthalen-2-yl)-3-(m-tolyl)-4,5-dihydro-1H-pyrazol-1-yl)benzo-hydrazide], the IC50 in the data set with MCF-7 cells (setting [4]) turned out to be 2.89 µM; in the data set with HeLa cells it was 2.45 µM; in the data set on A549 cells it was 3.02 µM; with HepG2 cells, 3.54 µM; in data set [2] (setting [5]) it was 2.12 µM. In addition, in data set [1], the CC50 was found to be 92.3 µM.

With `COc1cccc(/C=N/NC(=O)c2ccc(N3N=C(c4cc(OC)c(OC)c(OC)c4)CC3c3ccc4ccccc4c3)cc2)c1` (centres unmarked) [Compound H7, (E)-N′-(3-Methoxybenzylidene)-4-(5-(naphthalen-2-yl)-3-(3,4,5-trimethoxyphenyl)-4,5-dihydro-1H-pyrazol-1-yl)benzohydrazide], the melting point was 230 to 232 °C. In addition, the IC50 in the data set with MCF-7 cells (Homo sapiens, MCF7, read-out: In vitro antiproliferative activity IC50, MCF-7) stood at 95.3 µM. For the same compound, in the data set with HeLa cells (Homo sapiens), the IC50 is above 100 µM. For the same compound, the IC50 in the data set on A549 cells (Homo sapiens) turned out to be 78.3 µM. Moreover, in data set [3], the CC50 at 24 h came to 92.9 µM. In addition, in the data set on HepG2 cells (Homo sapiens), the IC50 was above 100 µM. The compound further came in with a half-maximal inhibitory concentration (IC50) in data set [2] of 26.9 µM.

The IC50 is the concentration needed to halve the response being measured. A word on the melting point: it is the temperature, or range, at which the solid turns liquid.
